Data on nine compounds can be found in US20220324835A1 (Nurix Therapeutics, Inc., priority 2018, published 2022).

Molecules are shown by their SMILES. Some results are limits rather than exact numbers.

Experiment [1] has as its target T1, Cbl-b (Homo sapiens, UniProt Q13191). As to the kind of experiment: Cbl-b activity assay (Cbl-b inhibition assay), TR-FRET of Cbl-b interaction with UbcH5B-Ub. It counts as biochemical. The settings on record: assay buffer with 100 mM NaCl, 60 nM Src kinase; read-out: Cbl-b activity IC50. The method, boiled down: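 UbcH5B (C85K) conjugated to N-terminally Bodipy-Fluorescein-labeled ubiquitin served as the fluorescent partner. After compound preincubation, Src kinase (60 nM) with 1 mM ATP and 5 mM MgCl2 (final) was added for 1.5 h, followed by a further 1 h incubation. Some values were obtained with 50 mM NaCl and 30 nM Src.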

The test system of experiment [2] is T-cell. As to the kind of experiment: CD25 cell surface staining on T-cells co-stimulated with anti-CD3 and anti-CD28 antibody (Biological Example 2). It counts as cell-based, human. The settings on record: Homo sapiens, T-cell, fold change over baseline, primary human total T-cells, read-out: CD25 staining Anti-CD3/Anti-CD28 stimulation; for fold induction at 0.3 µM: 0.3 μM Cbl-b inhibitor; for fold induction at 1 µM: 1 μM Cbl-b inhibitor; for fold induction at 4 µM: 4 μM Cbl-b inhibitor. In a few lines: (§1)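 T-cells were stimulated with anti-CD3 antibody alone or with anti-CD28 antibody, in the presence or absence of Cbl-b inhibitor. IL-2 secretion or CD25 surface staining was measured, and values expressed as fold over the uninhibited baseline […].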

For experiment [3], the target named is T1, Cbl-b. As to the kind of experiment: Cbl-b inhibition assay (Cbl-b activity assay, FRET, Biological Example 1; 100 mM NaCl, 60 nM Src kinase). It counts as biochemical. As to conditions: upper bound stated in text lists; read-out: IC50 values in the Cbl-b inhibition assay of Biological Example 1. The method, boiled down: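 Inhibitor activity is measured as reduced terbium-to-fluorescein FRET between streptavidin-terbium on biotinylated Cbl-b and Bodipy-fluorescein ubiquitin carried by an irreversible UbcH5B-Ub conjugate, binding of which depends on Src phosphorylation of Cbl-b.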

Experiment [4] relates to T-cell. Put plainly: IL-2 secretion from T-cells stimulated with anti-CD3 antibody alone (Biological Example 2). It counts as cell-based, human. As to conditions: T-cell, fold change over baseline, primary human total T-cells, read-out: IL-2 secretion Anti-CD3 stimulation; for fold induction at 1 µM: 1 μM Cbl-b inhibitor; for fold induction at 8 µM: 8 μM Cbl-b inhibitor.
In experiment [5] the test system is T-cell. Put plainly: CD25 cell surface staining on T-cells stimulated with anti-CD3 antibody alone (Biological Example 2). It counts as cell-based, human. The settings on record: T-cell, fold change over baseline, primary human total T-cells, read-out: CD25 staining Anti-CD3 stimulation; for fold induction at 1 µM: 1 μM Cbl-b inhibitor; for fold induction at 8 µM: 8 μM Cbl-b inhibitor.

For experiment [6], the system named is T-cell. Put plainly: IL-2 secretion from T-cells co-stimulated with anti-CD3 and anti-CD28 antibody (Biological Example 2). As to conditions: Homo sapiens, T-cell, fold change over baseline, primary human total T-cells, read-out: IL-2 secretion Anti-CD3/Anti-CD28 stimulation; for fold induction at 0.3 µM: 0.3 μM Cbl-b inhibitor; for fold induction at 1 µM: 1 μM Cbl-b inhibitor; for fold induction at 4 µM: 4 μM Cbl-b inhibitor. It counts as cell-based, human. The method, boiled down: as §1

T1 sequence (Q13191 36-427): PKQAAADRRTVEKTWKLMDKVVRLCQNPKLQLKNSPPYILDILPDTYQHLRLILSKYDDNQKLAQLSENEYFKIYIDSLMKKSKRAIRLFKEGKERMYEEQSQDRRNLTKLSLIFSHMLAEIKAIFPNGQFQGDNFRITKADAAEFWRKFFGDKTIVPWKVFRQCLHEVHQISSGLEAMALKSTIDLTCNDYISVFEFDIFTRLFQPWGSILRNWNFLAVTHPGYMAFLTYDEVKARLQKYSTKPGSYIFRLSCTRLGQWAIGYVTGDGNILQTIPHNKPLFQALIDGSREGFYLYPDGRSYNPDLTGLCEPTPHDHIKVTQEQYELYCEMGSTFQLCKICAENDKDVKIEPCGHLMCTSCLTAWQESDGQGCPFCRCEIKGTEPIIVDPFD

As to `Cc1cc(C(=O)Nc2cccc([C@H](C)Cc3nncn3C)c2)nc2ccnn12` [Compound 329, (R)-7-Methyl-N-(3-(1-(4-methyl-4H-1,2,4-triazol-3-yl)propan-2-yl)phenyl)pyrazolo[1,5-a]pyrimidine-5-carboxamide], the IC50 on Cbl-b [1] was 0.1 to 0.3 µM; on Cbl-b [3], no more than 0.3 µM. Further, the fold induction at 0.3 µM in the experiment with T-cell [2] lay in the range of 1.01 to 1.3; in the experiment on T-cell [6] it was 1.01 to 2.5. Also, the fold induction at 1 µM in the experiment on T-cell [2] fell in the range of 1.01 to 1.3; in the experiment with T-cell [4], 0.101 to 0.15; in the experiment with T-cell [5], 0.601 to 0.8; with T-cell [6] it was 1.01 to 2.5. Further, the values for the fold induction at 4 µM in the experiment with T-cell [2] and with T-cell [6] were 1.31 to 1.5 and 5 to 7.5, respectively. The fold induction at 8 µM with T-cell [4] is greater than 0.201; with T-cell [5] it was greater than 1.

As to `Cc1cc(C(=O)Nc2cccc([C@H]3C[C@H]3c3nncn3C)c2)nc(C2CC2)n1` [Compound 333, 2-cyclopropyl-6-methyl-N-{3-[(1 S,2R)-2-(4-methyl-1,2,4-triazol-3-yl)cyclopropyl]phenyl}pyrimidine-4-carboxamide], the IC50 on Cbl-b [1] is 0.1 to 0.3 µM; on Cbl-b [3], no more than 0.3 µM. For the same compound, the fold induction at 0.3 µM fell in the range of 1.01 to 1.3 with T-cell [2] and 1.01 to 2.5 in the experiment with T-cell [6]. Besides, the fold induction at 1 µM in the experiment on T-cell [2] was in the range of 1.01 to 1.3; in the experiment with T-cell [4], 0.101 to 0.15; with T-cell [5], 0.801 to 1; with T-cell [6], 2.51 to 5. For the same compound, the fold induction at 4 µM with T-cell [2] was 1.01 to 1.3; in the experiment with T-cell [6] it was 5 to 7.5. Also, the fold induction at 8 µM in the experiment on T-cell [4] is greater than 0.201; in the experiment with T-cell [5] it was greater than 1.

As to `Cc1cc(C(=O)Nc2cccc([C@H](C)Cc3nncs3)c2)nc(C2CC2)n1` [Compound 334, (R)-N-(3-(1-(1,3,4-thiadiazol-2-yl)propan-2-yl)phenyl)-2-cyclopropyl-6-methylpyrimidine-4-carboxamide], the values for the IC50 on Cbl-b [1] and at Cbl-b [3] were 0.1 to 0.3 µM and no more than 0.3 µM, respectively. Also, the values for the fold induction at 0.3 µM with T-cell [2] and in the experiment on T-cell [6] were 1.01 to 1.3 and 1.01 to 2.5, respectively. Besides, the fold induction at 1 µM was in the range of 1.01 to 1.3 with T-cell [2], 0.101 to 0.15 in the experiment with T-cell [4], 0.601 to 0.8 in the experiment with T-cell [5] and 2.51 to 5 in the experiment with T-cell [6]. The fold induction at 4 µM in the experiment with T-cell [2] is 1.01 to 1.3; with T-cell [6], 5 to 7.5. Besides, the fold induction at 8 µM in the experiment with T-cell [4] was greater than 0.201; with T-cell [5], 0.801 to 1.

In the case of `Cn1cnnc1CC1(c2cccc(NC(=O)c3ccnc(C(F)(F)F)n3)c2)COC1` [Compound 337, N-(3-(3-((4-methyl-4H-1,2,4-triazol-3-yl)methyl)oxetan-3-yl)phenyl)-2-(trifluoromethyl)pyrimidine-4-carboxamide], the IC50 at Cbl-b [1] was 0.1 to 0.3 µM; on Cbl-b [3], no more than 0.3 µM. In addition, the fold induction at 0.3 µM was 1.01 to 1.3 in the experiment with T-cell [2] and 1.01 to 2.5 in the experiment with T-cell [6]. Besides, the fold induction at 1 µM in the experiment with T-cell [2] fell in the range of 1.01 to 1.3; with T-cell [4] it was 0.051 to 0.1; in the experiment with T-cell [5], 0.601 to 0.8; in the experiment with T-cell [6], 2.51 to 5. Further, the figures for the fold induction at 4 µM in the experiment with T-cell [2] and in the experiment on T-cell [6] were 1.01 to 1.3 and 2.51 to 5, respectively. The fold induction at 8 µM with T-cell [4] is 0.151 to 0.2; in the experiment with T-cell [5], greater than 1.

Consider `Cc1cc(C(=O)Nc2cccc(C3(Cc4nncn4C)COC3)c2)nc(C(F)(F)F)n1` [Compound 338, 6-methyl-N-(3-(3-((4-methyl-4H-1,2,4-triazol-3-yl)methyl)oxetan-3-yl)phenyl)-2-(trifluoromethyl)pyrimidine-4-carboxamide], for which the figures for the IC50 at Cbl-b [1] and on Cbl-b [3] were less than 0.1 µM and no more than 0.1 µM, respectively. The fold induction at 0.3 µM lay within 1.01 to 1.3 in the experiment on T-cell [2] and 1.01 to 2.5 in the experiment on T-cell [6]. Also, the fold induction at 1 µM in the experiment with T-cell [2] was 1.01 to 1.3; in the experiment on T-cell [4], 0.101 to 0.15; in the experiment on T-cell [5] it was 0.801 to 1; in the experiment on T-cell [6], 2.51 to 5. For the same compound, the results for the fold induction at 4 µM with T-cell [2] and in the experiment on T-cell [6] were 1.01 to 1.3 and greater than 7.5, respectively. Besides, the fold induction at 8 µM in the experiment with T-cell [4] was greater than 0.201; in the experiment on T-cell [5] it was greater than 1.

Take `Cc1cc(C(=O)Nc2cccc(C3(Cc4nncn4C)COC3)c2)nc(C2CC2)c1` [Compound 339, 6-cyclopropyl-4-methyl-N-(3-(3-((4-methyl-4H-1,2,4-triazol-3-yl)methyl)oxetan-3-yl)phenyl)picolinamide]: the results for the IC50 on Cbl-b [1] and on Cbl-b [3] were less than 0.1 µM and no more than 0.1 µM, respectively. For the same compound, the fold induction at 0.3 µM was 1.31 to 1.5 with T-cell [2] and 5 to 7.5 in the experiment on T-cell [6]. For the same compound, the fold induction at 1 µM is 1.31 to 1.5 with T-cell [2], greater than 0.201 in the experiment with T-cell [4], greater than 1 with T-cell [5] and greater than 7.5 in the experiment with T-cell [6]. The fold induction at 4 µM in the experiment with T-cell [2] is 1.51 to 1.75; in the experiment on T-cell [6] it was greater than 7.5. The fold induction at 8 µM is greater than 0.201 with T-cell [4] and greater than 1 with T-cell [5].

As for `Cc1cc(C(=O)Nc2cccc(C3(Cc4nncn4C)COC3)c2)nc(C2CCC2)n1` [Compound 340, 2-cyclobutyl-6-methyl-N-(3-(3-((4-methyl-4H-1,2,4-triazol-3-yl)methyl)oxetan-3-yl)phenyl)pyrimidine-4-carboxamide], the IC50 is less than 0.1 µM on Cbl-b [1] and no more than 0.1 µM at Cbl-b [3]. In addition, the fold induction at 0.3 µM in the experiment on T-cell [2] lay in the range of 1.01 to 1.3; in the experiment with T-cell [6], 1.01 to 2.5. The fold induction at 1 µM with T-cell [2] was in the range of 1.01 to 1.3; with T-cell [4] it was 0.151 to 0.2; in the experiment with T-cell [5], 0.801 to 1; in the experiment on T-cell [6], 5 to 7.5. Moreover, the figures for the fold induction at 4 µM with T-cell [2] and in the experiment with T-cell [6] were 1.31 to 1.5 and greater than 7.5, respectively. The fold induction at 8 µM in the experiment on T-cell [4] was greater than 0.201; in the experiment with T-cell [5], greater than 1.

Take `Cn1cnnc1CC1(c2cccc(NC(=O)c3cc(C4CC4)nc(C(F)(F)F)n3)c2)COC1` [Compound 341, 6-cyclopropyl-N-(3-(3-((4-methyl-4H-1,2,4-triazol-3-yl)methyl)oxetan-3-yl)phenyl)-2-(trifluoromethyl)pyrimidine-4-carboxamide]: the values for the IC50 on Cbl-b [1] and on Cbl-b [3] were less than 0.1 µM and no more than 0.1 µM, respectively. Moreover, the fold induction at 0.3 µM in the experiment on T-cell [2] lay in the range of 1.01 to 1.3; with T-cell [6] it was 2.51 to 5. Also, the fold induction at 1 µM with T-cell [2] is 1.31 to 1.5; with T-cell [4] it was 0.151 to 0.2; in the experiment on T-cell [5] it was 0.801 to 1; with T-cell [6] it was greater than 7.5. In addition, the fold induction at 4 µM in the experiment with T-cell [2] is 1.51 to 1.75; in the experiment on T-cell [6] it was greater than 7.5. The fold induction at 8 µM is greater than 0.201 with T-cell [4] and greater than 1 in the experiment on T-cell [5].

`COc1cc(C(=O)Nc2cccc(C3(Cc4nncn4C)COC3)c2)nc(C2CC2)n1` [Compound 342, 2-cyclopropyl-6-methoxy-N-(3-(3-((4-methyl-4H-1,2,4-triazol-3-yl)methyl)oxetan-3-yl)phenyl)pyrimidine-4-carboxamide]: the IC50 at Cbl-b [1] is less than 0.1 µM; at Cbl-b [3] it was no more than 0.1 µM. Moreover, the fold induction at 0.3 µM with T-cell [2] was in the range of 1.01 to 1.3; with T-cell [6], 5 to 7.5. The fold induction at 1 µM in the experiment on T-cell [2] was 1.31 to 1.5; with T-cell [4] it was 0.151 to 0.2; in the experiment on T-cell [5] it was greater than 1; in the experiment with T-cell [6] it was greater than 7.5.
